Tests used:
[1] = biological target: T1, ABL1(F317L)-nonphosphorylated (Homo sapiens, UniProt P00519, F317L); assay: KINOMEscan 1 μM, ABL1(F317L)-nonphosphorylated; type: binding; conditions: 1000 nM; Entrez ABL1; read-out: Percent Control
T1 construct: purchased Eurofins DiscoverX KINOMEscan
Text: (§1) Supplement cells-12-00287-s001.zip/File S2. KinomeScan data for the CAMKK2 probe and negative control.xlsx, sheet "SGC-CAMKK2-1" | column: Percent Control

[2] = biological target: T2, ABL1(Y253F)-phosphorylated (Homo sapiens, UniProt P00519, Y253F); assay: KINOMEscan 1 μM, ABL1(Y253F)-phosphorylated; type: binding; conditions: 1000 nM; Entrez ABL1; read-out: Percent Control
T2 construct: purchased Eurofins DiscoverX KINOMEscan
Text: as §1

PIKFYVE = biological target: T3, PIKFYVE (Homo sapiens, UniProt Q9Y2I7); assay: KINOMEscan 1 μM, PIKFYVE; type: binding; conditions: 1000 nM; Entrez PIKFYVE; read-out: Percent Control
T3 construct: purchased Eurofins DiscoverX KINOMEscan
Text: as §1

[3] = biological target: T4, RSK1(Kin.Dom.2-C-terminal) (Homo sapiens, UniProt Q15418); assay: KINOMEscan 1 μM, RSK1(Kin.Dom.2-C-terminal); type: binding; conditions: 1000 nM; Entrez RPS6KA1; read-out: Percent Control
T4 construct: RSK1(Kin.Dom.2-C-terminal); purchased Eurofins DiscoverX KINOMEscan
Text: as §1

WNK3 = biological target: T5, WNK3 (Homo sapiens, UniProt Q9BYP7); assay: KINOMEscan 1 μM, WNK3; type: binding; conditions: 1000 nM; Entrez WNK3; read-out: Percent Control
T5 construct: purchased Eurofins DiscoverX KINOMEscan
Text: as §1

AMPK-alpha2 = biological target: T6, AMPK-alpha2 (Homo sapiens, UniProt P54646); assay: KINOMEscan 1 μM, AMPK-alpha2; type: binding; conditions: 1000 nM; Entrez PRKAA2; read-out: Percent Control
T6 construct: purchased Eurofins DiscoverX KINOMEscan
Text: as §1

BMPR1B = biological target: T7, BMPR1B (Homo sapiens, UniProt O00238); assay: KINOMEscan 1 μM, BMPR1B; type: binding; conditions: 1000 nM; Entrez BMPR1B; read-out: Percent Control
T7 construct: purchased Eurofins DiscoverX KINOMEscan
Text: as §1

ERK8 = biological target: T8, ERK8 (Homo sapiens, UniProt Q8TD08); assay: KINOMEscan 1 μM, ERK8; type: binding; conditions: 1000 nM; Entrez MAPK15; read-out: Percent Control
T8 construct: purchased Eurofins DiscoverX KINOMEscan
Text: as §1

FRK = biological target: T9, FRK (Homo sapiens, UniProt P42685); assay: KINOMEscan 1 μM, FRK; type: binding; conditions: 1000 nM; Entrez FRK; read-out: Percent Control
T9 construct: purchased Eurofins DiscoverX KINOMEscan
Text: as §1

MAP4K5 = biological target: T10, MAP4K5 (Homo sapiens, UniProt Q9Y4K4); assay: KINOMEscan 1 μM, MAP4K5; type: binding; conditions: 1000 nM; Entrez MAP4K5; read-out: Percent Control
T10 construct: purchased Eurofins DiscoverX KINOMEscan
Text: as §1

MET(M1250T) = biological target: T11, MET(M1250T) (Homo sapiens, UniProt P08581, M1250T); assay: KINOMEscan 1 μM, MET(M1250T); type: binding; conditions: 1000 nM; Entrez MET; read-out: Percent Control
T11 construct: purchased Eurofins DiscoverX KINOMEscan
Text: as §1

MLK2 = biological target: T12, MLK2 (Homo sapiens, UniProt Q02779); assay: KINOMEscan 1 μM, MLK2; type: binding; conditions: 1000 nM; Entrez MAP3K10; read-out: Percent Control
T12 construct: purchased Eurofins DiscoverX KINOMEscan
Text: as §1

MYLK4 = biological target: T13, MYLK4 (Homo sapiens, UniProt Q86YV6); assay: KINOMEscan 1 μM, MYLK4; type: binding; conditions: 1000 nM; Entrez MYLK4; read-out: Percent Control
T13 construct: purchased Eurofins DiscoverX KINOMEscan
Text: as §1

[4] = biological target: T14, RPS6KA4(Kin.Dom.1-N-terminal) (Homo sapiens, UniProt O75676); assay: DiscoverX KINOMEscan binding assay at 1 μM, RPS6KA4(Kin.Dom.1-N-terminal); conditions: Compound Concentration 1000 nM, read-out: Percent Control
T14 construct: RPS6KA4(Kin.Dom.1-N-terminal); purchased Eurofins DiscoverX KINOMEscan
Text: as §1

S6K1 = biological target: T15, S6K1 (Homo sapiens, UniProt P23443); assay: DiscoverX KINOMEscan binding assay at 1 μM, S6K1; conditions: S6K1 (RPS6KB1); Compound Concentration 1000 nM; read-out: Percent Control
T15 construct: purchased Eurofins DiscoverX KINOMEscan
Text: as §1

TRKA = biological target: T16, TRKA (Homo sapiens, UniProt P04629); assay: DiscoverX KINOMEscan binding assay at 1 μM, TRKA; conditions: TRKA (NTRK1); Compound Concentration 1000 nM; read-out: Percent Control
T16 construct: purchased Eurofins DiscoverX KINOMEscan
Text: as §1

TSSK1B = biological target: T17, TSSK1B (Homo sapiens, UniProt Q9BXA7); assay: DiscoverX KINOMEscan binding assay at 1 μM, TSSK1B; conditions: Compound Concentration 1000 nM, read-out: Percent Control
T17 construct: purchased Eurofins DiscoverX KINOMEscan
Text: as §1

VPS34 = biological target: T18, VPS34 (Homo sapiens, UniProt Q8NEB9); assay: DiscoverX KINOMEscan binding assay at 1 μM, VPS34; conditions: VPS34 (PIK3C3); Compound Concentration 1000 nM; read-out: Percent Control
T18 construct: purchased Eurofins DiscoverX KINOMEscan
Text: as §1

CAMK2A = biological target: T19, CAMK2A (Homo sapiens, UniProt Q9UQM7); assay: KINOMEscan at 1 μM, CAMK2A; type: binding; conditions: 1000 nM, read-out: Percent Control
T19 construct: purchased Eurofins DiscoverX KINOMEscan
Text: (§2) Supplement cells-12-00287-s001.zip/File S2. KinomeScan data for the CAMKK2 probe and negative control.xlsx, sheet "SGC-CAMKK2-1N" | column: Percent Control

MKNK2 = biological target: T20, MKNK2 (Homo sapiens, UniProt Q9HBH9); assay: KINOMEscan at 1 μM, MKNK2; type: binding; conditions: 1000 nM, read-out: Percent Control
T20 construct: purchased Eurofins DiscoverX KINOMEscan
Text: as §2

DMPK = biological target: T21, DMPK (Homo sapiens, UniProt Q09013); assay: KINOMEscan at 1 μM, DMPK; type: binding; conditions: 1000 nM, read-out: Percent Control
T21 construct: purchased Eurofins DiscoverX KINOMEscan
Text: as §2

PIP5K2B = biological target: T22, PIP5K2B (Homo sapiens, UniProt P78356); assay: KINOMEscan at 1 μM, PIP5K2B; type: binding; conditions: 1000 nM, read-out: Percent Control
T22 construct: purchased Eurofins DiscoverX KINOMEscan
Text: as §2

FLT3(R834Q) = biological target: T23, FLT3(R834Q) (Homo sapiens, UniProt P36888, R834Q); assay: KINOMEscan at 1 μM, FLT3(R834Q); type: binding; conditions: 1000 nM, read-out: Percent Control
T23 construct: purchased Eurofins DiscoverX KINOMEscan
Text: as §2

RIPK1 = biological target: T24, RIPK1 (Homo sapiens, UniProt Q13546); assay: KINOMEscan at 1 μM, RIPK1; type: binding; conditions: 1000 nM, read-out: Percent Control
T24 construct: purchased Eurofins DiscoverX KINOMEscan
Text: as §2

[5] = biological target: T25, RSK4(Kin.Dom.1-N-terminal) (Homo sapiens, UniProt Q9UK32); assay: KINOMEscan at 1 μM, RSK4(Kin.Dom.1-N-terminal); type: binding; conditions: 1000 nM, read-out: Percent Control
T25 construct: RSK4(Kin.Dom.1-N-terminal); purchased Eurofins DiscoverX KINOMEscan
Text: as §2

MST1R = biological target: T26, MST1R (Homo sapiens, UniProt Q04912); assay: KINOMEscan at 1 μM, MST1R; type: binding; conditions: 1000 nM, read-out: Percent Control
T26 construct: purchased Eurofins DiscoverX KINOMEscan
Text: as §2

RIPK2 = biological target: T27, RIPK2 (Homo sapiens, UniProt O43353); assay: KINOMEscan at 1 μM, RIPK2; type: binding; conditions: 1000 nM, read-out: Percent Control
T27 construct: purchased Eurofins DiscoverX KINOMEscan
Text: as §2

MAST1 = biological target: T28, MAST1 (Homo sapiens, UniProt Q9Y2H9); assay: KINOMEscan binding assay at 1 μM, MAST1; conditions: Compound Concentration 1000 nM; read-out: Percent Control
T28 construct: purchased Eurofins DiscoverX KINOMEscan
Text: as §2

MLCK = biological target: T29, MLCK (Homo sapiens, UniProt Q32MK0); assay: KINOMEscan binding assay at 1 μM, MLCK; conditions: Compound Concentration 1000 nM; read-out: Percent Control
T29 construct: purchased Eurofins DiscoverX KINOMEscan
Text: as §2

NEK6 = biological target: T30, NEK6 (Homo sapiens, UniProt Q9HC98); assay: KINOMEscan binding assay at 1 μM, NEK6; conditions: Compound Concentration 1000 nM; read-out: Percent Control
T30 construct: purchased Eurofins DiscoverX KINOMEscan
Text: as §2

PRKG1 = biological target: T31, PRKG1 (Homo sapiens, UniProt Q13976); assay: KINOMEscan binding assay at 1 μM, PRKG1; conditions: Compound Concentration 1000 nM; read-out: Percent Control
T31 construct: purchased Eurofins DiscoverX KINOMEscan
Text: as §2

T16 sequence (P04629 33-796): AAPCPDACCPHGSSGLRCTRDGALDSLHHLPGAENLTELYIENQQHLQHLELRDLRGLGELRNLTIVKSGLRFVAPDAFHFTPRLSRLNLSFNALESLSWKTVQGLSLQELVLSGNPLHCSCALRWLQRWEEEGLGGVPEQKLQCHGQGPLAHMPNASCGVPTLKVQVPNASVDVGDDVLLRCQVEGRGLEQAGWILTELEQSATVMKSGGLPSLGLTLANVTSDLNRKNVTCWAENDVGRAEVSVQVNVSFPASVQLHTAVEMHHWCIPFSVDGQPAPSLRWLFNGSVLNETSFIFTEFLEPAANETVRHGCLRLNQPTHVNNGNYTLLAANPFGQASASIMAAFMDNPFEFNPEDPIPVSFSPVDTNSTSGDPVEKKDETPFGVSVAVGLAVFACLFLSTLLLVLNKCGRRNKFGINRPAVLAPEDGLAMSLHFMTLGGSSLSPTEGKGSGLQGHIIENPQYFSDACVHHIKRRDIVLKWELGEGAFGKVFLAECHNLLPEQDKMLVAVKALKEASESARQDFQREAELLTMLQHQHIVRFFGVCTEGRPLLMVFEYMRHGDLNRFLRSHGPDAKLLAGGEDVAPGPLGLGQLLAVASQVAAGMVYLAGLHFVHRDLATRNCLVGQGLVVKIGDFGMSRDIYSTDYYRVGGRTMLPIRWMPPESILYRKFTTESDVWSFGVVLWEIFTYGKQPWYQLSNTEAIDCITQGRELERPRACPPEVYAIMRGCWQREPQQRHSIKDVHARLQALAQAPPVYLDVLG
T14 sequence (O75676 1-371 limits assumed): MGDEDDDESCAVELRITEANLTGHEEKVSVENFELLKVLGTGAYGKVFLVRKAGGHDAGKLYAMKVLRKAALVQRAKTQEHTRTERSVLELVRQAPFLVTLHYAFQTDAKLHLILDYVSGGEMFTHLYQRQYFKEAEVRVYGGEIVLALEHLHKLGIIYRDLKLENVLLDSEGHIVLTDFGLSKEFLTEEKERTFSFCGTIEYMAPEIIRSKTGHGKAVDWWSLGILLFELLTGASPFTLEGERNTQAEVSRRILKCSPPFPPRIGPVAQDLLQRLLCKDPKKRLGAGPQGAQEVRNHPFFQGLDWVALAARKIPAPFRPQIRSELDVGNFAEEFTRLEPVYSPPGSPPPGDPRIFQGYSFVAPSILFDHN
T3 sequence (Q9Y2I7 whole entry): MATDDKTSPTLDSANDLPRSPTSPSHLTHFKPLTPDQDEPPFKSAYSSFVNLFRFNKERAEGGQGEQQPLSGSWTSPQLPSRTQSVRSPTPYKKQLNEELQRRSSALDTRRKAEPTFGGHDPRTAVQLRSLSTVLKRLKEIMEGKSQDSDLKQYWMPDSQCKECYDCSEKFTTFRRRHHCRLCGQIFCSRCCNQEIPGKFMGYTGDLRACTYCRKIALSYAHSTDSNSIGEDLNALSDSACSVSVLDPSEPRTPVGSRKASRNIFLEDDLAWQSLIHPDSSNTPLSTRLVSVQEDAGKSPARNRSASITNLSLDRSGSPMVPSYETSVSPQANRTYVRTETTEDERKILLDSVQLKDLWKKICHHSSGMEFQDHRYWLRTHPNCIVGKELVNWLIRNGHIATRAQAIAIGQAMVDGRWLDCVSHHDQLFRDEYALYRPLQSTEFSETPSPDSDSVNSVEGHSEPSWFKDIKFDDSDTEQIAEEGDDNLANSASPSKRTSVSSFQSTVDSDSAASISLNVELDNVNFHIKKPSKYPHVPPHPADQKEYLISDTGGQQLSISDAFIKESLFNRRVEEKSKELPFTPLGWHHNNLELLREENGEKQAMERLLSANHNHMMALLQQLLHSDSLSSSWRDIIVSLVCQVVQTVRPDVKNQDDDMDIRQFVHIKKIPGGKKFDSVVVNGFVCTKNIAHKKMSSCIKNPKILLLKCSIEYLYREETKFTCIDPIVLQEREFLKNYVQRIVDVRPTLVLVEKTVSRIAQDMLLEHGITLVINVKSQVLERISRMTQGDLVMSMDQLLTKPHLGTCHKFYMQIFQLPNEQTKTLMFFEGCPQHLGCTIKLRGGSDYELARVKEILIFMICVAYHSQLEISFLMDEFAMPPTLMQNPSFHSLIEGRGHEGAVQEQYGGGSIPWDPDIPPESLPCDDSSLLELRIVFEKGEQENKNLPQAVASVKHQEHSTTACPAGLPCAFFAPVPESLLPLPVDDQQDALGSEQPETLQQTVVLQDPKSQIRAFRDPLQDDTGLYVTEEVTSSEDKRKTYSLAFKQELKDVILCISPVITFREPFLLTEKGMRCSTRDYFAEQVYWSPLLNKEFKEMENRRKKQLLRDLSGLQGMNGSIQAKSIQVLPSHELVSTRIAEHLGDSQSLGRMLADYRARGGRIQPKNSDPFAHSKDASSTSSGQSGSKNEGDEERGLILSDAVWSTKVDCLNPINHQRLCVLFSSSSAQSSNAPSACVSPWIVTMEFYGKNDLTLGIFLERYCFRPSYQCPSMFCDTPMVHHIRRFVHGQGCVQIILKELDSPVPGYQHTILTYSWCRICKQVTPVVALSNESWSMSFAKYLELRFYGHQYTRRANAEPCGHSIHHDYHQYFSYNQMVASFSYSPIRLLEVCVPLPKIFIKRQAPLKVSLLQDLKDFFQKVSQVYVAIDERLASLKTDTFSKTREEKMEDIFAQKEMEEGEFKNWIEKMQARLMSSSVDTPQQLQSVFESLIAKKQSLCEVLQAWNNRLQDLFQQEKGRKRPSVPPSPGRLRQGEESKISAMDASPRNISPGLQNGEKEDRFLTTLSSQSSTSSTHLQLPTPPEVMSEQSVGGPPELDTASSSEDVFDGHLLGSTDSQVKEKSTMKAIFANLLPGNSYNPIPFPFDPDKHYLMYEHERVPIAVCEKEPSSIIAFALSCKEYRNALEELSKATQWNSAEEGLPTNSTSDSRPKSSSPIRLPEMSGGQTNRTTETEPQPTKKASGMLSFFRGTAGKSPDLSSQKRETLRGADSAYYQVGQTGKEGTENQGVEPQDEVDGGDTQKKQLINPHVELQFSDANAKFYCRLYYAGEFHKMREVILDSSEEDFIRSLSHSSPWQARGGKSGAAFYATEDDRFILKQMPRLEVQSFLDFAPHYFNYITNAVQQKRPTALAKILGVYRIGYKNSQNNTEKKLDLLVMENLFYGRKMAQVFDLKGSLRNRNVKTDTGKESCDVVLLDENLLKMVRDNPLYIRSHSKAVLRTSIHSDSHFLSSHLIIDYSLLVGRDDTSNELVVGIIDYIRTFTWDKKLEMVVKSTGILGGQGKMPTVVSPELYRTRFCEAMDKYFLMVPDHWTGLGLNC
T29 sequence (Q32MK0 whole entry): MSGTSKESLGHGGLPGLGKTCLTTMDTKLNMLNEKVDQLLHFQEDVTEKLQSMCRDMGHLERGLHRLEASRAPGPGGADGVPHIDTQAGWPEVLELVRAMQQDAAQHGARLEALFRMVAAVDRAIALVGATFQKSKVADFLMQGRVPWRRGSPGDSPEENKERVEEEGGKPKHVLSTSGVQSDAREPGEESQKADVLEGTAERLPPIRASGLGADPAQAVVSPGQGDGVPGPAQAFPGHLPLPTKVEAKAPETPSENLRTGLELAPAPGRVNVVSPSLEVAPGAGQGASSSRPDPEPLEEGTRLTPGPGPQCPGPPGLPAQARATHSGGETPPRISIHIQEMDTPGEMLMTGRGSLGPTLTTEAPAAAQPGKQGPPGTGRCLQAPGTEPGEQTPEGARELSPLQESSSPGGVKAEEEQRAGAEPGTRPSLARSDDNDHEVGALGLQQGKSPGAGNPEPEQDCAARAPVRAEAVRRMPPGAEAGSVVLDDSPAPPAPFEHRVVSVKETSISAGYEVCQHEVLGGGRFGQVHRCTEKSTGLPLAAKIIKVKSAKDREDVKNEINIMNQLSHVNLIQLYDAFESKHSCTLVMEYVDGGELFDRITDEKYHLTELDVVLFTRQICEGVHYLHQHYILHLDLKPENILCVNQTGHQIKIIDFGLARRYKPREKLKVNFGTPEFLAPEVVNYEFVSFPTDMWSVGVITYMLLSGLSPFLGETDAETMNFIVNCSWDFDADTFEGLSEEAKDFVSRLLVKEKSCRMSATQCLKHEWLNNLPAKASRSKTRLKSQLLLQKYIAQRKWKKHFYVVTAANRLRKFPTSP
T13 sequence (Q86YV6 whole entry): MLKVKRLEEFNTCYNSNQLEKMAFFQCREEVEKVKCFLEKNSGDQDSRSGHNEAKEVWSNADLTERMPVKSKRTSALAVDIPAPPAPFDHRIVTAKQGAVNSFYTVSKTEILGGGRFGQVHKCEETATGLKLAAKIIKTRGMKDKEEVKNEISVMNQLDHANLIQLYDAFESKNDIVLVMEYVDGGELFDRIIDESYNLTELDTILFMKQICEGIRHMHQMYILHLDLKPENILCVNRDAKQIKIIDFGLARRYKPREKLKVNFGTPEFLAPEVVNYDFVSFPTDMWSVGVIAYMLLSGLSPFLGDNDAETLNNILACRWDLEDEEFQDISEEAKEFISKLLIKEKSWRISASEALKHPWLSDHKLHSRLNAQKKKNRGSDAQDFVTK
T25 sequence (Q9UK32 1-400 limits assumed): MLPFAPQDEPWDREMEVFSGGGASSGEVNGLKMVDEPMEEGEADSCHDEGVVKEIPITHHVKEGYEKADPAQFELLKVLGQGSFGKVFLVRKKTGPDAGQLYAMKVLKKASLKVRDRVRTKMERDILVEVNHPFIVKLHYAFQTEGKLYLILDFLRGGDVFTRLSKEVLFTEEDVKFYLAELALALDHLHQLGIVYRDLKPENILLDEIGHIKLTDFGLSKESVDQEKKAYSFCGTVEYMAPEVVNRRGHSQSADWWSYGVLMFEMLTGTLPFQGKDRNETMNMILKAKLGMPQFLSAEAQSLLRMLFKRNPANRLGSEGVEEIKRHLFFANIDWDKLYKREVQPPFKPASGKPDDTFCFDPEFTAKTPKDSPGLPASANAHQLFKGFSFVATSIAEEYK

Compound Cc1cccc(-c2cnc3occ(-c4ccc(C(=O)O)c(C5CCCC5)c4)c3c2)c1 [SGC-CAMKK2-1 (YL-36)] has a remaining binding at 1 µM [1] of 71%, a remaining binding at 1 µM [2] of 73% and a remaining binding at 1 µM (PIKFYVE) of 80%. It also gave a remaining binding at 1 µM [3] of 80%, a remaining binding at 1 µM (WNK3) of 97% and a remaining binding at 1 µM (AMPK-alpha2) of 100%. The remaining binding at 1 µM (BMPR1B) was 100%, the remaining binding at 1 µM (ERK8) was 100% and the remaining binding at 1 µM (FRK) was 100%. The remaining binding at 1 µM (MAP4K5) was 100%, the remaining binding at 1 µM (MET(M1250T)) was 100% and the remaining binding at 1 µM (MLK2) was 100%. For the same compound, the remaining binding at 1 µM (MYLK4) was 100%, the remaining binding at 1 µM [4] was 100% and the remaining binding at 1 µM (S6K1) was 100%. It also gave a remaining binding at 1 µM (TRKA) of 100%, a remaining binding at 1 µM (TSSK1B) of 100% and a remaining binding at 1 µM (VPS34) of 100%.
O=C(O)c1ccc(-c2coc3ncc(-c4ccccc4)cc23)cc1Cl [SGC-CAMKK2-1N (UNC-YL-83)] was tested, and the remaining binding at 1 µM (CAMK2A) was 65%, the remaining binding at 1 µM (MKNK2) was 67% and the remaining binding at 1 µM (DMPK) was 72%. The remaining binding at 1 µM (PIP5K2B) was 74%, the remaining binding at 1 µM (FLT3(R834Q)) was 84% and the remaining binding at 1 µM (RIPK1) was 90%. It also gave a remaining binding at 1 µM [5] of 92%, a remaining binding at 1 µM (MST1R) of 98% and a remaining binding at 1 µM (RIPK2) of 99%. It also gave a remaining binding at 1 µM (MAST1) of 100%, a remaining binding at 1 µM (MLCK) of 100% and a remaining binding at 1 µM (NEK6) of 100%. It also gave a remaining binding at 1 µM (PRKG1) of 100%.
